Laboratory results as given in patent publication US20260137788A1, “INFLAMMATION STIMULI RESPONSIVE PEPTIDE BRUSH POLYMERS” (NORTHWESTERN UNIVERSITY, priority 2021, published 2026).
Ends that are not written are not given here.

Legend:
[1] = tested on: Sprague Dawley rats, IR MI; assay: Efficacy on LV function by MRI; format: in vivo, rat; settings: tail-vein injection 1-day post-MI, MRI 3 days and 5 weeks post-injection
Procedure: Methods 5.1: Assessing Efficacy of L-PLPMMPi on LV Function. Male and female Sprague Dawley rats undergo IR procedures as previously described in Example 2. Prior to surgery, all animals undergo magnetic resonance imaging (MRI) to establish a baseline for LV ejection fraction (EF), wall thickness, end diastolic volume (EDV), and end systolic volume (ESV). […] MRI is performed at 3 days and 5 weeks (n=7 per sex for saline, MMPi, L-PLP, and L-PLPMMPi treated animals with randomized groups for each harvest timepoint) post-injection to assess cardiac function via LV EF, wall thickness, EDV, and ESV. For power analysis, an a value of 0.05 and a power of 0.8 was used to determine experimental sample sizes with additional rats based on an expected 30% mortality from surgical procedures. A 2-way ANOVA with post-hoc Tukey Test is then performed with significance at α=0.05.

[2] = Dry state Transmission Electron Microscopy (TEM); format: physicochemical
Procedure: (§1) Characterization Results: The molar mass of both unlabeled and labeled AAK20 PLPs were analyzed by SDS PAGE using a polyacrylamide gel with a pore gradient of 4-15% (cat #: 4561083) and Precision Plus Kaleidoscope Protein Standard (cat #: 1610395). The mass of both AAK20 and Cy5.5-AAK20 samples were ˜20 kDa and found to correspond with the average molecular weight of an AAK PLP with a DP of 20 (FIG. 9A). […] The diffusion rate of AAK20 in deuterated water was analyzed by Diffusion Ordered Spectroscopy (DOSY) NMR. […] Additional physical characterization of AAK20 by dry state Transmission Electron Microscopy (TEM) was performed to provide complementary data to SDS PAGE, DLS, and DOSY NMR.

[3] = Dynamic Light Scattering (DLS) average diameter; format: physicochemical; settings: in PBS
Procedure: as §1

[4] = Diffusion Ordered Spectroscopy (DOSY) NMR diffusion rate; format: physicochemical; settings: in deuterated water
Procedure: ^1H Nuclear Magnetic Resonance (^1H NMR): ^1H NMR data was recorded on either a Bruker Avance III HD 500 MHz spectrometer, a Bruker Avance III 600 MHz spectrometer, or a Bruker Neo 600 MHz spectrometer. The 500 MHz spectrometer was primarily used for small molecule characterization, the Bruker Avance III 600 MHz spectrometer was used for polymerization kinetics studies, and the Bruker Neo 600 MHz spectrometer was used for diffusion ordered spectroscopy (DOSY) studies done on PLPs in deuterated buffered saline. ^1H NMR chemical shifts are given in reference to residual proton peaks from either the DMSO-d6 or the DMF-d7 solvent.
as §1

Compound	LV ejection fraction (EF), pre- vs post-MI (MRI) [1]	end diastolic volume (EDV), pre- vs post-MI (MRI) [1]	end systolic volume (ESV), pre- vs post-MI (MRI) [1]	wall thickness, pre- vs post-MI (MRI) [1]	morphology by dry state TEM [2]	average diameter by DLS [3] [nm]	diffusion rate by DOSY NMR [4]
CC(C)[C@H](NS(=O)(=O)c1ccc(-c2ccc(Br)cc2)cc1)C(=O)O [MMPi, PD166793]	decreased	increased	increased	negligible differences	–	–	–
AAK20: PLP made by ROMP of norbornene AAK monomer (SEQ ID NO: 142, AAKAAKAA) at 20 molar equivalence to Grubbs catalyst; unlabeled (AAKAAKAA-NH2; also: norbornene monomer polymerized by ROMP into PLP)	–	–	–	–	nanoscale globular assemblies	< 10	approximately 1×10^−6 cm^2/s
